From patent US20220098191A1 (priority 2019, published 2022)
Where “and” joins values, the source holds several entries; their conditions need not be identical. Identical values can stand only once.

Tests used:
[1] = Hydrophobicity investigation of free payloads by UPLC (hydrophobicity model); format: physicochemical; settings: for Retention Time (min) seco form, Average: Average of runs, D only in seco form, the others observable as single species; for Retention Time (min) seco form / Retention Time (min) spiro form: single runs 1-3 (triplicate), 0.1% TFA water/acetonitrile gradient
Procedure: Both mobile phases were filtered through 0.22 μm filters and degassed by sonication under argon. Caffeine (Merck, UPLC grade) was employed a standard. Blank solvent samples (i.e., DMSO) were used during sample runs to confirm lack of carryover between injections and to monitor column performance.
UPLC-MS analysis was performed on a Waters Acquity H-Class Ultra-Performance Liquid Chromatography (UPLC) System equipped with an Acquity UPLC BEH, […] 50×2.10 mm (Waters, UK) column and a photodiode array detector […], using Waters MassLynx software. The gradient system used for LC analysis consisted of 0.1% trifluoroacetic acid (TFA) in water as Solvent A, and 0.1% trifluoroacetic acid (TFA) in acetonitrile as Solvent B. TFA was purchased from Merck (UK), and diluted to the required concentration with UPLC grade water and acetonitrile for Solvent A and Solvent B, respectively. TFA was added to ensure acidic conditions throughout the analysis. A flow rate of 0.4 mL/min was used, and the detection wavelength was 254 nm. Mass spectrometry data were collected using a Waters SQ Detector 2 coupled to a Waters Acquity H Class UPLC and a Photo Diode Array Detector (ACQ-PDA). The Waters SQ Detector 2 parameters were set to: Capillary (kV), 3.00; Cone (V), 30; De-solvation Temperature (° C.), 600; Cone flow rate (L/h), 50; De-solvation flow rate (L/h), 600.
Gradient method used: from 95% A/5% B to 20% B over 5 min. Then from 20% B to 60% B over 35 min, followed by from 60% B to 85% B over 10 min. It was further changed from 85% B to 90% B over 5 min and kept for a further 5 min. Finally, from 90% B to 95% B over 2.5 min, and then to 20% B over 2.5 min. 10 μL was split via a zero-dead volume T-piece which passed into the mass spectrometer.
Compounds were provided in powder form and were dissolved in DMSO to achieve 5 mM stock solution. This solution was then diluted to 500 μM with 50% acetonitrile/50% water.
A number of commercially available ADC payloads and internal reference compounds were also incorporated into the analysis, and their structures are presented in Table 3.

JVM2 (Lymphoma) = experiment: MTT in vitro cytotoxicity, 72 hour incubation; format: cell-based; settings: Homo sapiens, JVM-2, MTT assay, JVM2 cells
Procedure: (§1) The in vitro cytotoxicity of a selection of compounds was determined in a panel of cell lines using the standard MTT assay for a 72 hour incubation period (Table 1).
(§2) Tumor cell lines were maintained in RPMI1640 medium supplemented with 10% heat-inactivated fetal bovine serum, 2 mM L-glutamine and 1 mM sodium pyruvate. 1800 cells per well were seeded in a volume of 180 μl in a 96-well flat bottom polystyrene plate. The cells were allowed to adhere overnight at 37° C. in a CO2 incubator. Ligands were initially formulated in DMSO, and stocks stored at −80° C. They were then further formulated at lox concentration in RPMI1640 medium. 20 μl of diluted samples were added into each treatment well. On each plate, blank wells with no cells, and untreated wells containing cells, were included. Plates were then cultured at 37° C. in a CO2 incubator for 72 hrs. Cytotoxicity was evaluated using a tetrazolium salt-based assay, the MTT assay. After 72 hours, the supernatant was removed from each well and 200 μl of a sterile filtered 500 μg/ml MTT solution in water added to each well. The plates were then incubated at 37° C. in a CO2 incubator for 4 hrs. The supernatant was then removed and the formazan crystals formed solubilized by adding 150 μl of DMSO to each well. The plate was then read on a plate reader at 540 nm, and percentage cell survival calculated as follows: ((mean absorbance treated wells at concentration×−mean absorbance blank wells)÷(mean absorbance untreated wells at concentration×−mean absorbance blank wells))×100. Data were plotted as concentration in nM vs. % cell survival in Microsoft Excel, and IC50 values (concentration where cell survival is reduced by a half) were determined from the graph.

Jurkat (Leukaemia) = experiment: MTT in vitro cytotoxicity, 72 hour incubation; format: cell-based; settings: Homo sapiens, MTT assay, Jurkat cells
Procedure: as §1, §2

RAJI (Lymphoma) = experiment: MTT in vitro cytotoxicity, 72 hour incubation; format: cell-based; settings: Homo sapiens, MTT assay, RAJI cells
Procedure: as §1, §2

With `COc1ccc(C2=CN3C(=O)c4cc(OC)c(OCCCOc5cc6c(cc5OC)C(=O)N5C=C(c7ccc(N)cc7)C[C@H]5C=N6)cc4N=C[C@@H]3C2)cc1` [SGD1882, reference compound] the “Retention Time (min) seco form, Average” value [1] was 12.55 min.

Molecule `COc1cc2c(cc1OCCOCCC(=O)N1C[C@@H](CCl)c3c1cc(O)c1ccccc31)N=C[C@@H]1CC(c3ccsc3)=CCN1C2=O` [Compound 104, (S)-3-(2-(3-((S)-1-(Chloromethyl)-5-hydroxy-1,2-dihydro-3H-benzo[e]indol-3-yl)-3-oxopropoxy)ethoxy)-2-methoxy-8-(thiophen-3-yl)-7,10-dihydrobenzo[e]pyrido[1,2-a][1,4]diazepin-12(6aH)-one] has an IC50 (JVM2 (Lymphoma)) of 0.0018 nM, an IC50 (Jurkat (Leukaemia)) of 0.0095 nM and an IC50 (RAJI (Lymphoma)) of 0.0025 nM. The “Retention Time (min) seco form” value [1] was 24.10 min and 24.09 min and the “Retention Time (min) spiro form” value [1] was 16.90 min and 16.93 min and 16.91 min.

In the case of `COc1cc2c(cc1OCCCCCC(=O)N1C[C@@H](CCl)c3c1cc(O)c1ccccc31)N=C[C@@H]1CCCN1C2=O` [C, reference compound], the “Retention Time (min) seco form” value [1] is reported as 20.16 min and 20.15 min and the “Retention Time (min) spiro form” value [1] is reported as 12.49 min and 12.48 min and 12.45 min.

In the case of `CC[C@H](C)C[C@H](OC)[C@@H](C(=O)N1CCC[C@H]1[C@@H](CC(=O)N[C@H](C)[C@@H](O)c1ccccc1)OC)N(C)C(=O)[C@@H](NC(=O)[C@@H](NC)C(C)C)C(C)C` [MMAE, reference compound], the “Retention Time (min) seco form, Average” value [1] is reported as 12.04 min.

In the case of `COc1cc2c(cc1OCCCCCC(=O)N1C[C@@H](CCl)c3c1cc(O)c1ccccc31)N=C[C@@H]1CCCCN1C2=O` [A, reference compound], the “Retention Time (min) seco form” value [1] is reported as 22.55 min and 22.56 min and the “Retention Time (min) spiro form” value [1] is reported as 14.85 min and 14.83 min and 14.84 min.

`COc1cc2c(cc1OC[C@@H](O)CC(=O)N1C[C@@H](CCl)c3c1cc(O)c1ccccc31)N=C[C@@H]1CC(c3ccsc3)=CCN1C2=O` [Compound 108, (S)-3-((S)-4-((S)-1-(Chloromethyl)-5-hydroxy-1,2-dihydro-3H-benzo[e]indol-3-yl)-2-hydroxy-4-oxobutoxy)-2-methoxy-8-(thiophen-3-yl)-7,10-dihydrobenzo[e]pyrido[1,2-a][1,4]diazepin-12(6aH)-one] gave an IC50 (JVM2 (Lymphoma)) of 0.0047 nM, an IC50 (Jurkat (Leukaemia)) of 0.014 nM and an IC50 (RAJI (Lymphoma)) of 0.01 nM. The “Retention Time (min) seco form” value [1] was 22.54 min and 22.53 min and the “Retention Time (min) spiro form” value [1] was 15.71 min and 15.69 min and 15.70 min.

In the case of `COc1cc2c(cc1OCc1cccc(CC(=O)N3C[C@@H](CCl)c4c3cc(O)c3ccccc43)c1)N=C[C@@H]1CCCCN1C2=O` [B, reference compound], the “Retention Time (min) seco form” value [1] is reported as 23.64 min and 23.65 min and the “Retention Time (min) spiro form” value [1] is reported as 16.10 min and 16.12 min and 16.09 min.

With `COc1cc2c(cc1OCCCCCC(=O)N1C[C@@H](CCl)c3c1cc(O)c1ccccc31)N=C[C@@H]1CC(c3ccsc3)=CCN1C2=O` [Compound 96, (S)-3-((6-((S)-1-(Chloromethyl)-5-hydroxy-1,2-dihydro-3H-benzo[e]indol-3-yl)-6-oxohexyl)oxy)-2-methoxy-8-(thiophen-3-yl)-7,10-dihydrobenzo[e]pyrido[1,2-a][1,4]diazepin-12(6aH)-one] the IC50 (RAJI (Lymphoma)) was 0.0014 nM, the “Retention Time (min) seco form” value [1] was 28.04 min and 28.08 min and 28.06 min and the “Retention Time (min) spiro form” value [1] was 21.00 min and 21.02 min.

For `COc1cc2cc(c1Cl)N(C)C(=O)C[C@](C)(OC(=O)[C@@H](C)N(C)C(=O)CCSC)[C@]1(C)O[C@H]1[C@H](C)[C@@H]1C[C@@](O)(NC(=O)O1)[C@H](OC)/C=C/C=C(\C)C2` [DM1, reference compound], the “Retention Time (min) seco form, Average” value [1] was 21.24 min.

Work on `CNS(=O)(=O)c1ccc(C2=CCN3C(=O)c4cc(OC)c(OC[C@@H](O)CC(=O)N5C[C@@H](CCl)c6c5cc(O)c5ccccc65)cc4N=C[C@@H]3C2)cc1` [Compound 88, 4-((S)-3-((S)-4-((S)-1-(Chloromethyl)-5-hydroxy-1,2-dihydro-3H-benzo[e]indol-3-yl)-2-hydroxy-4-oxobutoxy)-2-methoxy-12-oxo-6a,7,10,12-tetrahydrobenzo[e]pyrido[1,2-a][1,4]diazepin-8-yl)-N-methylbenzenesulfonamide] yielded an IC50 (JVM2 (Lymphoma)) of 0.49 nM, an IC50 (Jurkat (Leukaemia)) of 0.97 nM and an IC50 (RAJI (Lymphoma)) of 0.954 nM. The “Retention Time (min) seco form” value [1] was 18.73 min and 18.70 min and the “Retention Time (min) spiro form” value [1] was 12.47 min and 12.45 min.

With `COc1cc2c(cc1OCc1cc(N)cc(COc3cc4c(cc3OC)C(=O)N3c5ccccc5C[C@H]3CN4)c1)N=C[C@@H]1Cc3ccccc3N1C2=O` [DGN549, reference compound] the “Retention Time (min) seco form, Average” value [1] was 16.60 min.

In the case of `CCc1c2c(nc3ccc(O)cc13)-c1cc3c(c(=O)n1C2)COC(=O)[C@]3(O)CC` [SN38, reference compound], the “Retention Time (min) seco form, Average” value [1] is reported as 7.13 min.

For `COc1cc2c(cc1OCc1cccc(CC(=O)N3C[C@@H](CCl)c4c3cc(OC(=O)N3CCN(C)CC3)c3ccccc43)c1)N=C[C@@H]1CCCCN1C2=O` [D, reference compound], the “Retention Time (min) seco form, Average” value [1] was 17.03 min and the “enhanced hydrophilicity (retention time) compared to the unsubstituted compound (B)” value ([1]; carbamate pro-drug D versus B) was “approximately 10 mins”.

Work on `CNS(=O)(=O)c1ccc(C2=CCN3C(=O)c4cc(OC)c(OCCOCCC(=O)N5C[C@@H](CCl)c6c5cc(O)c5ccccc65)cc4N=C[C@@H]3C2)cc1` [Compound 76, 4-((S)-3-(2-(3-((S)-1-(Chloromethyl)-5-hydroxy-1,2-dihydro-3H-benzo[e]indol-3-yl)-3-oxopropoxy)ethoxy)-2-methoxy-12-oxo-6a,7,10,12-tetrahydrobenzo[e]pyrido[1,2-a][1,4]diazepin-8-yl)-N-methylbenzenesulfonamide] yielded an IC50 (JVM2 (Lymphoma)) of 0.0138 nM, an IC50 (Jurkat (Leukaemia)) of 0.0095 nM and an IC50 (RAJI (Lymphoma)) of 0.0172 nM. For the same molecule, the “Retention Time (min) seco form” value [1] was 20.14 min and the “Retention Time (min) spiro form” value [1] was 13.29 min and 13.28 min.

In the case of `COc1cc2c(cc1OCCCC(=O)N1C[C@@H](CCl)c3c1cc(O)c1ccccc31)N=C[C@@H]1CC(c3ccsc3)=CCN1C2=O` [Compound 100, (S)-3-(4-((S)-1-(Chloromethyl)-5-hydroxy-1,2-dihydro-3H-benzo[e]indol-3-yl)-4-oxobutoxy)-2-methoxy-8-(thiophen-3-yl)-7,10-dihydrobenzo[e]pyrido[1,2-a][1,4]diazepin-12(6aH)-one], the IC50 (JVM2 (Lymphoma)) is reported as 0.001 nM, the “Retention Time (min) seco form” value [1] is reported as 25.24 min and 25.23 min and the “Retention Time (min) spiro form” value [1] is reported as 17.94 min and 17.89 min and 17.93 min.

In the case of `COc1cc2c(cc1OCCCCCOc1cc3c(cc1OC)C(=O)N1C=C(C)C[C@H]1C=N3)C=C[C@@H]1CC(C)=CN1C2=O` [SG3199, reference compound], the “Retention Time (min) seco form, Average” value [1] is reported as 12.02 min.
